In patent publication US10131652B2, “Pyrimidinyloxy benzene derivatives as herbicides” (E. I. DU PONT DE NEMOURS AND COMPANY, priority 2014, dated 2018):

What was measured:
Type in all cases: in vivo
[1] = test system: galium (catchweed bedstraw, Galium aparine); experiment: Test B postemergence plant response; conditions: 0 to 100 scale, 0 no effect, 100 complete control
Method in brief: (§1)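 Visual injury rating, 0–100 (0 = no effect, 100 = complete control), vs untreated controls ~10 days after postemergence spray; greenhouse; potted loam soil/sand; plants 2–10 cm, 1–2 leaf stage.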

[2] = test system: blackgrass (Alopecurus myosuroides); experiment: Test B postemergence plant response; conditions: 0 to 100 scale, 0 no effect, 100 complete control
Method in brief: as §1

kochia (Kochia scoparia) [3] = experiment: Test D postemergence plant response; conditions: for Kochia plant response rating: 31 g ai/ha, scale 0 to 100 (0 no effect, 100 complete control); for Plant response rating, Kochia: scale 0 to 100, 0 no effect, 100 complete control
Method in brief: (§2)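 The formulated test chemicals were applied over the foliage of young potted plants (2 to 18 cm tall), which were then held under greenhouse conditions. Between days 13 and 15 each species was rated by eye versus controls, from 0 for no effect up to 100 for complete control.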

wild oat (Avena fatua) = experiment: Test D postemergence plant response; conditions: for Oat, Wild plant response rating: 31 g ai/ha, scale 0 to 100 (0 no effect, 100 complete control); for Plant response rating, Oat, Wild: scale 0 to 100, 0 no effect, 100 complete control
Method in brief: as §2

[4] = test system: chickweed (common chickweed, Stellaria media); experiment: Test D postemergence plant response; conditions: for Chickweed plant response rating: scale 0 to 100 (0 no effect, 100 complete control); for Plant response rating, Chickweed: scale 0 to 100, 0 no effect, 100 complete control
Method in brief: as §2

[5] = test system: giant foxtail (Setaria faberii); experiment: Test B pre-/postemergence plant response
Method in brief: (§3)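 Steps: plant seeds in loam soil–sand mix; spray soil preemergence, and in parallel spray 2–10 cm one- to two-leaf plants postemergence; hold ~10 days in greenhouse; visually rate injury against untreated controls (0 = no effect, 100 = complete control).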

[6] = test system: pigweed (Amaranthus retroflexus); experiment: Test B pre-/postemergence plant response
Method in brief: as §3

kochia (Kochia scoparia) [7] = experiment: Test B pre-/postemergence plant response
Method in brief: as §3

[8] = test system: Italian ryegrass (Lolium multiflorum); experiment: Test B pre-/postemergence plant response
Method in brief: as §3

corn (Zea mays) = experiment: Test B pre-/postemergence plant response; conditions: 0 to 100 scale, 0 no effect, 100 complete control
Method in brief: as §3

[9] = test system: barnyardgrass (Echinochloa crus-galli); experiment: Test B pre-/postemergence plant response
Method in brief: as §3

[10] = test system: wheat (Triticum aestivum); experiment: Test B pre-/postemergence plant response; conditions: 0 to 100 scale, 0 no effect, 100 complete control
Method in brief: as §3

[11] = test system: ragweed (common ragweed, Ambrosia elatior); experiment: Test B pre-/postemergence plant response
Method in brief: as §3

[12] = test system: ducksalad (Heteranthera limosa); experiment: Test C flooded paddy test plant response; conditions: Flood, 250 g ai/ha; scale of 0 to 100 where 0 is no effect and 100 is complete control; 13 to 15 days
Method in brief: (§4)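 Readout is a visual 0–100 score (100 = complete control) versus controls at 13–15 days. Plants at 2-leaf stage, flooded to 3 cm, treated through paddy water.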

[13] = test system: barnyardgrass (Echinochloa crus-galli); experiment: Test C flooded paddy test plant response; conditions: Flood, 250 g ai/ha; scale of 0 to 100 where 0 is no effect and 100 is complete control; 13 to 15 days
Method in brief: as §4

[14] = test system: small-flower umbrella sedge (Cyperus difformis); experiment: Test C flooded paddy test plant response; conditions: Flood, 250 g ai/ha; scale of 0 to 100 where 0 is no effect and 100 is complete control; 13 to 15 days
Method in brief: as §4

rice (Oryza sativa) = experiment: Test C flooded paddy test plant response; conditions: Flood, 250 g ai/ha; scale of 0 to 100 where 0 is no effect and 100 is complete control; 13 to 15 days
Method in brief: as §4

[15] = 31 g ai/ha, Postemergence, 0 to 100 scale, 0 no effect, 100 complete control
[16] = 31 g ai/ha, Preemergence, 0 to 100 scale where 0 is no effect and 100 is complete control
[17] = 125 g ai/ha, postemergence, 0 to 100 scale, 0 no effect, 100 complete control
[18] = Preemergence, 125 g ai/ha, 0 to 100 scale where 0 is no effect and 100 is complete control
[19] = Preemergence, 125 g ai/ha, 0 to 100 scale (0 no effect, 100 complete control)

FC(F)c1cc(-c2c(Cl)cccc2Oc2ncc(Br)cn2)on1 [Compound 121]
40: Plant response rating, Corn (corn (Zea mays); 125 g ai/ha, postemergence)
30: Plant response rating, Ryegrass, Italian [8, 16] | Plant response rating, Wheat ([10]; 125 g ai/ha, postemergence)
20: Plant response rating, Corn (corn (Zea mays); 31 g ai/ha, Postemergence)
60: Plant response rating, Kochia (kochia (Kochia scoparia) [7]; [16]) | Plant response rating, Ragweed [11, 17] | Barnyardgrass plant response rating [13]
100: Plant response rating, Galium ([1]; 31 g ai/ha, Postemergence) | Plant response rating, Galium ([1]; 125 g ai/ha, postemergence) | Kochia plant response rating (kochia (Kochia scoparia) [3]) | Plant response rating, Kochia (kochia (Kochia scoparia) [3]; 62 g ai/ha) | Plant response rating, Kochia (kochia (Kochia scoparia) [3]; 125 g ai/ha) | Chickweed plant response rating ([4]; 31 g ai/ha) | Plant response rating, Chickweed ([4]; 62 g ai/ha) | Plant response rating, Chickweed ([4]; 125 g ai/ha) | Plant response rating, Foxtail, Giant [5, 16] | Plant response rating, Foxtail, Giant [5, 18] | Plant response rating, Pigweed [6, 15] | Plant response rating, Pigweed [6, 16] | Plant response rating, Pigweed [6, 17] | Plant response rating, Kochia (kochia (Kochia scoparia) [7]; [18])
80: Plant response rating, Blackgrass ([2]; 125 g ai/ha, postemergence)
0: Plant response rating, Wheat ([10]; 31 g ai/ha, Postemergence)
90: Plant response rating, Foxtail, Giant [5, 17] | Plant response rating, Kochia (kochia (Kochia scoparia) [7]; [15]) | Plant response rating, Kochia (kochia (Kochia scoparia) [7]; [17]) | Plant response rating, Barnyardgrass [9, 17] | Plant response rating, Barnyardgrass [9, 18] | Ducksalad plant response rating [12] | Sedge, Umbrella plant response rating [14]
10: Plant response rating, Ragweed [11, 16]
95: Chickweed plant response rating ([4]; 16 g ai/ha)
70: Plant response rating, Oat, Wild (wild oat (Avena fatua); 62 g ai/ha) | Plant response rating, Oat, Wild (wild oat (Avena fatua); 125 g ai/ha) | Plant response rating, Foxtail, Giant [5, 15] | Plant response rating, Ryegrass, Italian [8, 17] | Plant response rating, Barnyardgrass [9, 16]
50: Plant response rating, Blackgrass ([2]; 31 g ai/ha, Postemergence) | Plant response rating, Ryegrass, Italian [8, 15] | Plant response rating, Barnyardgrass [9, 15] | Plant response rating, Ragweed [11, 15]
45: Oat, Wild plant response rating (wild oat (Avena fatua)) | Rice plant response rating (rice (Oryza sativa))

Fc1cccc(Oc2ncc(Cl)cn2)c1-c1cc(C2CC2)on1 [Compound 130]
50: Plant response rating, Blackgrass ([2]; 31 g ai/ha, Postemergence) | Plant response rating, Foxtail, Giant [5, 15] | Plant response rating, Kochia (kochia (Kochia scoparia) [7]; [16]) | Ryegrass, Italian plant response rating [8, 19] | Plant response rating, Barnyardgrass [9, 16]
80: Plant response rating, Blackgrass ([2]; 125 g ai/ha, postemergence) | Chickweed plant response rating ([4]; 16 g ai/ha) | Chickweed plant response rating ([4]; 31 g ai/ha) | Plant response rating, Chickweed ([4]; 62 g ai/ha) | Plant response rating, Foxtail, Giant [5, 17]
15: Oat, Wild plant response rating (wild oat (Avena fatua))
70: Kochia plant response rating (kochia (Kochia scoparia) [7]; [19])
100: Plant response rating, Kochia (kochia (Kochia scoparia) [3]; 62 g ai/ha) | Plant response rating, Kochia (kochia (Kochia scoparia) [3]; 125 g ai/ha) | Foxtail, Giant plant response rating [5, 19] | Plant response rating, Pigweed [6, 16] | Plant response rating, Pigweed [6, 17] | Pigweed plant response rating [6, 19] | Plant response rating, Barnyardgrass [9, 17]
65: Barnyardgrass plant response rating [13]
35: Plant response rating, Oat, Wild (wild oat (Avena fatua); 62 g ai/ha)
10: Plant response rating, Ragweed [11, 16]
60: Plant response rating, Oat, Wild (wild oat (Avena fatua); 125 g ai/ha) | Plant response rating, Ryegrass, Italian [8, 17] | Plant response rating, Ragweed [11, 17]
20: Plant response rating, Ryegrass, Italian [8, 16] | Plant response rating, Corn (corn (Zea mays); 31 g ai/ha, Postemergence) | Ragweed plant response rating [11, 19]
95: Kochia plant response rating (kochia (Kochia scoparia) [3]) | Plant response rating, Chickweed ([4]; 125 g ai/ha)
40: Plant response rating, Corn (corn (Zea mays); 125 g ai/ha, postemergence) | Plant response rating, Barnyardgrass [9, 15] | Plant response rating, Wheat ([10]; 125 g ai/ha, postemergence)
90: Plant response rating, Galium ([1]; 125 g ai/ha, postemergence) | Plant response rating, Foxtail, Giant [5, 16] | Plant response rating, Kochia (kochia (Kochia scoparia) [7]; [17]) | Barnyardgrass plant response rating [9, 19] | Ducksalad plant response rating [12] | Sedge, Umbrella plant response rating [14]
30: Rice plant response rating (rice (Oryza sativa))
